Data as given in ChEMBL document CHEMBL3734724, “Anticancer efficacy of unique pyridine-based tetraindoles” (Eur J Med Chem, 2015).

Assays:
[1] = Cytotoxicity against human M10 cells assessed as growth inhibition at 20 uM after 48 hrs by MTT assay relative to control; type: cell-based; settings: read-out: GI
[2] = Cytotoxicity against human M10 cells assessed as growth inhibition after 48 hrs by MTT assay; type: cell-based; settings: M10, 48 h
[3] = Cytotoxicity against human Hs578T cells assessed as growth inhibition after 48 hrs by MTT assay; type: functional, cell-based; settings: Hs-578T
[4] = tested on: MCF7; experiment: Cytotoxicity against human MCF7 cells assessed as growth inhibition after 48 hrs by MTT assay; type: functional, cell-based; settings: MCF7, 48 h
[5] = Cytotoxicity against human BT549 cells assessed as growth inhibition at 20 uM after 48 hrs by MTT assay relative to control; type: functional; settings: BT-549, 48 h, read-out: GI
[6] = Cytotoxicity against human Hs578T cells assessed as growth inhibition at 20 uM after 48 hrs by MTT assay relative to control; type: functional; settings: Hs-578T, read-out: GI
[7] = tested on: MCF7; experiment: Cytotoxicity against human MCF7 cells assessed as growth inhibition at 20 uM after 48 hrs by MTT assay relative to control; type: functional; settings: MCF7, 48 h, read-out: GI
[8] = tested on: MDA-MB-231; experiment: Cytotoxicity against human MDA-MB-231 cells assessed as growth inhibition after 48 hrs by MTT assay; type: functional, cell-based; settings: MDA-MB-231, 48 h
[9] = Cytotoxicity against human BT549 cells assessed as growth inhibition after 48 hrs by MTT assay; type: functional, cell-based; settings: BT-549, 48 h
[10] = tested on: MDA-MB-231; experiment: Cytotoxicity against human MDA-MB-231 cells assessed as growth inhibition at 20 uM after 48 hrs by MTT assay relative to control; type: functional; settings: MDA-MB-231, 48 h, read-out: GI
[11] = tested on: 4T1; experiment: Antitumor activity against luciferase-expressing mouse 4T1 cells allografted in athymic nude BALB/c mouse assessed as tumor growth inhibition at 12.5 mg/kg/week ip administered on first 3 days in first week followed by two shots on day 1 and day 4 at 6.25 mg/kg/week for another 3 weeks measured every other day until day 28 relative to vehicle-treated control; type: functional

Row | Compound | inhibition at 48 h, 20 µM [1] [%] | IC50 [2] [µM] | IC50 [3] [µM] | IC50 [4] [µM] | inhibition of growth at 20 µM [5] [%] | inhibition of growth at 20 µM [6] [%] | inhibition of growth at 20 µM [7] [%] | IC50 [8] [µM] | IC50 [9] [µM] | inhibition of growth at 20 µM [10] [%] | TGI [11] [%]
1 | c1cc(C(c2c[nH]c3ccccc23)c2c[nH]c3ccccc23)nc(C(c2c[nH]c3ccccc23)c2c[nH]c3ccccc23)c1 | 32 | > 20 | > 20 | > 20 | 22 | 8 | 47 | > 20 | > 20 | 29 | 
2 | Oc1ccc2c(C(c3ccc(C(c4c[nH]c5cc(O)ccc45)c4c[nH]c5cc(O)ccc45)nc3)c3c[nH]c4cc(O)ccc34)c[nH]c2c1 | 0 | > 20 | > 20 | > 20 | 19 | 0 | 0 | 14 | > 20 |  | 
3 | N#Cc1ccc2[nH]cc(C(c3cccc(C(c4c[nH]c5ccc(C#N)cc45)c4c[nH]c5ccc(C#N)cc45)n3)c3c[nH]c4ccc(C#N)cc34)c2c1 | 0 | > 20 | > 20 | > 20 |  | 22 | 13 | > 20 | 13 | 0 | 
4 | Clc1ccc2[nH]cc(C(c3ccc(C(c4c[nH]c5ccc(Cl)cc45)c4c[nH]c5ccc(Cl)cc45)nc3)c3c[nH]c4ccc(Cl)cc34)c2c1 | 25 | > 20 | > 20 | > 20 | 23 | 0 | 11 | > 20 | > 20 | 9 | 
5 | Brc1ccc2[nH]cc(C(c3ccc(C(c4c[nH]c5ccc(Br)cc45)c4c[nH]c5ccc(Br)cc45)nc3)c3c[nH]c4ccc(Br)cc34)c2c1 | 0 | > 20 | > 20 | > 20 |  | 0 | 0 | > 20 | 10 | 15 | 
6 | Brc1ccc2[nH]cc(C(c3cccc(C(c4c[nH]c5ccc(Br)cc45)c4c[nH]c5ccc(Br)cc45)n3)c3c[nH]c4ccc(Br)cc34)c2c1 | 0 | > 20 | > 20 | > 20 | 15 | 0 | 0 | > 20 | > 20 | 13 | 
7 | N#Cc1ccc2[nH]cc(C(c3ccc(C(c4c[nH]c5ccc(C#N)cc45)c4c[nH]c5ccc(C#N)cc45)nc3)c3c[nH]c4ccc(C#N)cc34)c2c1 | 0 | > 20 | > 20 | > 20 | 28 | 22 | 0 | > 20 | > 20 | 0 | 
8 | Oc1ccc2[nH]cc(C(c3ccc(C(c4c[nH]c5ccc(O)cc45)c4c[nH]c5ccc(O)cc45)cc3)c3c[nH]c4ccc(O)cc34)c2c1 |  |  |  |  |  |  |  |  |  |  | 16
9 | Fc1ccc2[nH]cc(C(c3cccc(C(c4c[nH]c5ccc(F)cc45)c4c[nH]c5ccc(F)cc45)n3)c3c[nH]c4ccc(F)cc34)c2c1 |  | 12 | 8.9 | 20 |  |  |  | 9.6 | 9.7 |  | 
10 | c1ccc(COc2ccc3[nH]cc(C(c4cccc(C(c5c[nH]c6ccc(OCc7ccccc7)cc56)c5c[nH]c6ccc(OCc7ccccc7)cc56)n4)c4c[nH]c5ccc(OCc6ccccc6)cc45)c3c2)cc1 | 30 | > 20 | > 20 | > 20 | 40 | 0 | 0 | > 20 | > 20 | 0 | 
11 | COc1ccc2[nH]cc(C(c3cccc(C(c4c[nH]c5ccc(OC)cc45)c4c[nH]c5ccc(OC)cc45)n3)c3c[nH]c4ccc(OC)cc34)c2c1 | 0 | > 20 | > 20 | > 20 |  | 18 | 9 | > 20 | 14 | 0 | 
12 | c1ccc2c(C(c3ccc(C(c4c[nH]c5ccccc45)c4c[nH]c5ccccc45)nc3)c3c[nH]c4ccccc34)c[nH]c2c1 | 26 | > 20 | 9 | > 20 |  |  | 21 | > 20 | 15 | 4 | 
13 | Clc1ccc2[nH]cc(C(c3cccc(C(c4c[nH]c5ccc(Cl)cc45)c4c[nH]c5ccc(Cl)cc45)n3)c3c[nH]c4ccc(Cl)cc34)c2c1 | 28 | > 20 | > 20 | > 20 |  | 5 | 20 | > 20 | 6 | 0 | 
14 | COc1ccc2[nH]cc(C(c3ccc(C(c4c[nH]c5ccc(OC)cc45)c4c[nH]c5ccc(OC)cc45)nc3)c3c[nH]c4ccc(OC)cc34)c2c1 | 0 | > 20 | > 20 | > 20 | 48 | 21 | 29 | > 20 | > 20 | 11 | 
15 | Oc1ccc2[nH]cc(C(c3cccc(C(c4c[nH]c5ccc(O)cc45)c4c[nH]c5ccc(O)cc45)n3)c3c[nH]c4ccc(O)cc34)c2c1 | 9 | > 20 | > 20 | > 20 | 10 | 2 | 11 | 10.3 | > 20 |  | 
16 | Fc1ccc2[nH]cc(C(c3ccc(C(c4c[nH]c5ccc(F)cc45)c4c[nH]c5ccc(F)cc45)nc3)c3c[nH]c4ccc(F)cc34)c2c1 |  | 19 | 17 | 14 |  |  |  | 8.6 | 13.1 |  | 
